Source: PMC5737332

Columns and labels:
[1] = test system: (CG)4 hairpin (DNA, hairpin) CGCGCGCGTTTTCGCGCGCG; assay: SPR (Biacore X-100); details: Na+ 200 mM; 25 °C; one-site fit; running buffer for compound titration not explicitly stated
[2] = test system: AATT hairpin (DNA, hairpin) CGAATTCGTCTCCGAATTCG; assay: SPR (Biacore X-100); details: Na+ 200 mM; 25 °C; site 1 of 2; running buffer for compound titration not explicitly stated
[3] = test system: (AT)4 hairpin (DNA, hairpin) CATATATATCCCCATATATATG; assay: SPR (Biacore X-100); details: Na+ 200 mM; 25 °C; site 1 of 2; running buffer for compound titration not explicitly stated
[4] = test system: AATAAT_ATTATT hairpin (DNA, hairpin) GGGGAATAATCGCGATTATTCCCCAATAATCGCGATTATT; assay: SPR competition; details: 200 mM NaCl, 3 mM EDTA, 10 mM HEPES pH 7.4, 0.05% P-20, 25 °C
[5] = test system: AATAAT_ATTATT hairpin (DNA, hairpin) GGGGAATAATCGCGATTATTCCCCAATAATCGCGATTATT; assay: SPR (Biacore X-100); details: Na+ 200 mM; 25 °C; site 1 of 2; running buffer for compound titration not explicitly stated
HMGB1 box A and box B = HMGB1 box A and box B (rat, UniProt P63159 8-165); assay: SPR; K1, high-affinity site of two-site fit; SPR (Biacore X-100), HEPES 1 buffer: 10 mM HEPES, 3 mM EDTA, 200 mM NaCl, 0.05% P-20, pH 7.4, 25 C; details: protein: recombinant; tags: GST (GST-tagged construct in pGEX2T); label: 5'-biotin; hairpin as stated by the authors; loop underlining lost in text
Sequence of HMGB1 box A and box B (P63159 8-165): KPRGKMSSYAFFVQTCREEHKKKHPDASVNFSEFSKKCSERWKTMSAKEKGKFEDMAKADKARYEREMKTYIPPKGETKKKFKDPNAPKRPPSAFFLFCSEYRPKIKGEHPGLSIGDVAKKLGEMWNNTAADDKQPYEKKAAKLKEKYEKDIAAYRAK

Row | K (KD) [1] [nM] | K1 (KD) [2] [nM] | K1 (KD) [3] [nM] | IC50 ([4]; displaces 2 μM HMGA1a(Δ50-91) protein) [nM] | IC50 ([4]; displaces 2 μM HMGB1 (box A+B) protein) [nM] | K1 (KD) [5] [nM] | Molecule | Kd (HMGB1 box A and box B) [nM]
1 | 6850 | 262 | 650 | 6000 | 3400 | 430 | O=C(Nc1ccc(NC2=NCCN2)c(Cl)c1)c1ccc(NC2=NCCN2)cc1 | –
2 | – | – | – | – | – | – | GGGGAATAATCGCGATTATTCCCCAATAATCGCGATTATT (structured_DNA) [AATAAT_ATTATT hairpin] | 330
